The values below come from PMC9138090, “Study on the Neuroprotective, Radical-Scavenging and MAO-B Inhibiting Properties of New Benzimidazole Arylhydrazones as Potential Multi-Target Drugs for the Treatment of Parkinson’s Disease” (Antioxidants, 2022).

The structures appear in SMILES notation.

In general, IC50 refers to the concentration that gives 50% inhibition.

Data set [1] in a line: MTT cytotoxicity on SH-SY5Y cells. It counts as cell-based, human. The note with it: human, SH-SY5Y neuroblastoma cells, MTT test, 24 h incubation; read-out: IC50, in vitro cytotoxicity on SH-SY5Y cells. The method, then:
(§1) Human neuroblastoma cell line SH-SY5Y was obtained from the European Collection of Cell Cultures (ECACC, Salisbury, UK). The cells were maintained in 75 cm^2 flasks at 37 °C in a humidified atmosphere with 5% CO2 and cultured in RPMI 1640 medium, supplemented with 10% fetal bovine serum and 2 mM L-glutamine.
(§2) MTT (Sigma-Aldrich Chemie GmbH, Schnelldorf, Germany) assay is based on interaction between tetrazolium dye 3-(4,5-dimethylthiazol-2-yl)-2,5-diphenyltetrazolium bromide and succinic dehydrogenase in the living cells’ mitochondria. In this reaction, the formed purple formazan crystals indicate the presence of viable cells. SH-SY5Y cells were seeded in 96-well microplates at a density 2.5 × 10^4 cells/well and allowed to attach to the well surface at 37 °C in a humidified atmosphere with 5% CO2 (24 h). Different concentrations of compounds ([…]) were added to cells and incubated for 24 h. For each concentration, a set of at least 8 wells were used. After the treatment, the solution in each well was substituted with MTT (3-(4,5-dimethylthiazol-2-yl)-2,5-diphenyltetrazolium bromide) solution (0.5 mg/mL in culture medium). The microplates were further incubated for 3 h at 37 °C and the obtained formazan crystals were dissolved by 100 µL/well of DMSO. The absorbance was measured in a multiplate reader Synergy 2 (BioTek Instruments, Inc, Highland Park, Winooski, VT, USA) at 570 nm (690 nm for background absorbance).
(§3) An important step in the development of new pharmacologically active compounds is the establishment of their safety profile. An in vitro toxicity evaluation was carried out on the neuroblastoma cell line SH-SY5Y, which is a well-established model in neuroscience. The neuroblastoma SH-SY5Y are human derived cells with relatively homogeneous neuroblast-like structure. The cells express a dopamine-β-hydroxylase and tyrosine hydroxylase enzyme activity, specific types of human proteins and protein isoforms. The possible neurotoxic effects of the potential drug candidates were measured by cell viability assay (MTT-test). The IC50 values were used as a robust parameter for comparison. The test compounds were dissolved in DMSO and serially diluted in cell culture medium to achieve final concentrations ranging from 1 to 500 µM; the culture medium containing DMSO in the corresponding concentration was used as untreated controls. A concentration dependent effect on cell viability was observed after 24 h incubation.
On the technique in general: Formazan colour is commonly taken as a measure of viable cells.

Another data set relates to SH-SY5Y cells. Description: MTT cytotoxicity on SH-SY5Y cells. Conditions: MTT test, 24 h incubation; read-out: IC50, in vitro cytotoxicity on SH-SY5Y cells. It counts as cell-based, human. The method, then: as §1, §2, §3
Data set [2] can be described thus: Superoxide scavenging, xanthine/xanthine oxidase NBT assay. Format: biochemical. The note with it: for change in sample absorbance vs. controls (in words): whole tested concentration range. As for the experimental part:
Superoxide radicals scavenging activity (enzymatic assay): The assay comprises the preparation of 1 mL PBS samples containing the following substances: 1 mmol/l xanthine; 20 µL xanthine oxidase (100 IU/L); 0.04 mmol/L NBT; either the tested hydrazone or buffer for the controls. The samples were incubated at 37 °C and the absorbance was measured at 560 nm.
The results from both assays have been presented as a percentage of the control sample.
The potency of the compounds selected as the most promising from the cell model systems and hMAOB inhibitory studies was estimated against enzymatically (xanthine/XO system) and non-enzymatically (KO2/NBT) produced superoxide radicals (Figure 7). In the xanthine-xanthine oxidase system the generation of O2^−^● is a result of an enzymatic reaction. The molecular mechanism of action of the XO enzyme is associated with catalysation of the reaction of oxidation of hypoxanthine and xanthine and generation of uric acid. During the process of reoxidation of the enzyme, the molecular oxygen acts as an electron acceptor and the formation of physiologically important ROS, such as the superoxide radical (O2^−^●) and hydrogen peroxide (H2O2), has been observed. In the potassium superoxide-containing systems, superoxide radical generation is due to the direct addition of the KO2 to the water sample solution. The release of a superoxide anion was estimated via NBT reduction activity, indicating detectable superoxide anion levels. The application of these two alternative model systems will afford the possibility to perform a more accurate interpretation of the obtained results. Since in the enzyme-free model system, the release of the superoxide in the small sample volume is a very fast process, there is a risk of local effects that is avoided in the xanthine-xanthine oxidase system. The use of enzyme reaction provides a relatively slow generation of the superoxide radical and steady concentration.

`COc1ccc(C=NNC(=O)CCn2c(=S)n(CCC(=O)NN=Cc3ccc(OC)cc3O)c3ccccc32)c(O)c1` [3m, 3,3′-(2-Thioxo-1H-benzo[d]imidazole-1,3(2H)-diyl)bis(N′-(2-hydroxy-4-methoxybenzylidene)propanehydrazide)]: the IC50 at 24 h in data set [1] was over 200 µM. Further, the IC50 in the data set on SH-SY5Y cells amounted to 211 µM. Also, the “change in sample absorbance vs. controls (in words)” value in data set [2] is “did not induce statistically significant change”.

`O=C(CCn1c(=S)n(CCC(=O)NN=Cc2cccc(O)c2O)c2ccccc21)NN=Cc1cccc(O)c1O` [3h, 3,3′-(2-Thioxo-1H-benzo[d]imidazole-1,3(2H)-diyl)bis(N′-(2,3-dihydroxybenzylidene)propanehydrazide)]: the concentration for half-maximal inhibition (IC50) at 24 h in data set [1] was over 250 µM. Moreover, in the data set on SH-SY5Y cells, the IC50 was found to be 296 µM. Besides, the “% of the control ratio, NBT reduction” value in data set [2] (maximal tested concentration) stood at 64%.

For the compound `O=C(CCn1c(=S)n(CCC(=O)NN=Cc2ccccc2O)c2ccccc21)NN=Cc1ccccc1O` [3e, 3,3′-(2-Thioxo-1H-benzo[d]imidazole-1,3(2H)-diyl)bis(N′-(2-hydroxybenzylidene)propanehydrazide)], the 50% inhibitory concentration (IC50) at 24 h in data set [1] is over 200 µM. Also, the IC50 with SH-SY5Y cells stood at 235 µM. Besides, the “change in sample absorbance vs. controls (in words)” value in data set [2] was “did not induce statistically significant change”.

With `O=C(CCn1c(=S)n(CCC(=O)NN=Cc2ccc(O)cc2O)c2ccccc21)NN=Cc1ccc(O)cc1O` [3i, 3,3′-(2-Thioxo-1H-benzo[d]imidazole-1,3(2H)-diyl)bis(N′-(2,4-dihydroxybenzylidene)propanehydrazide)], the IC50 at 24 h in data set [1] was over 250 µM. Moreover, in the data set with SH-SY5Y cells, the IC50 amounted to 301 µM. For the same compound, the “decrease of NBT reduction” value in data set [2] (xanthine/xanthine oxidase assay) was 15%.
